Assay [1] has as its target T1, CFTR in F508del/F508del primary CF hBE cells (Homo sapiens, UniProt P13569, DEL508-508).
T1 construct: Primary cystic fibrosis human bronchial epithelial (CF hBE) cells were expanded and cultured; endogenous in cells; host or cells: primary CF human bronchial epithelial cells, genotype F508del/F508del
The assay is described as follows: Ussing chamber electrophysiology assay of CFTR potentiation in F508del/F508del CF bronchial epithelial cells (27° C.). The format is cell-based. Summed up: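 Short-circuit current was recorded under zero-voltage clamp across primary CF bronchial epithelia cultured >30 days at air/liquid interface, bathed apically and basolaterally in HEPES-buffered saline. Sequential additions: amiloride (30 uM), forskolin (10 uM), compound at 4 increasing levels, CFTRinh-172 (20 uM). Responses normalised between DMSO (0%) and maximal positive-control potentiator (100%).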

Assay [2] addresses T2, recombinant F508del V470 CFTR in Fischer rat thyroid (FRT) cells (Homo sapiens, UniProt P13569, DEL508-508).
T2 construct: expressed in transfected cells
The assay is described as follows: FRT ion flux assay of F508del CFTR potentiation. The assay is classed as cell-based. The note with it: FRT cells expressing F508del V470 CFTR, forskolin 20 uM, 27° C. pre-incubation. The procedure, abridged:
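Potentiation read as YFP quench ~21 s after iodide buffer addition, as second/initial fluorescence ratio normalised between DMSO (0%) and reference potentiator (100%).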

T2 sequence (P13569 with tags, fused parts or gaps DEL508-508): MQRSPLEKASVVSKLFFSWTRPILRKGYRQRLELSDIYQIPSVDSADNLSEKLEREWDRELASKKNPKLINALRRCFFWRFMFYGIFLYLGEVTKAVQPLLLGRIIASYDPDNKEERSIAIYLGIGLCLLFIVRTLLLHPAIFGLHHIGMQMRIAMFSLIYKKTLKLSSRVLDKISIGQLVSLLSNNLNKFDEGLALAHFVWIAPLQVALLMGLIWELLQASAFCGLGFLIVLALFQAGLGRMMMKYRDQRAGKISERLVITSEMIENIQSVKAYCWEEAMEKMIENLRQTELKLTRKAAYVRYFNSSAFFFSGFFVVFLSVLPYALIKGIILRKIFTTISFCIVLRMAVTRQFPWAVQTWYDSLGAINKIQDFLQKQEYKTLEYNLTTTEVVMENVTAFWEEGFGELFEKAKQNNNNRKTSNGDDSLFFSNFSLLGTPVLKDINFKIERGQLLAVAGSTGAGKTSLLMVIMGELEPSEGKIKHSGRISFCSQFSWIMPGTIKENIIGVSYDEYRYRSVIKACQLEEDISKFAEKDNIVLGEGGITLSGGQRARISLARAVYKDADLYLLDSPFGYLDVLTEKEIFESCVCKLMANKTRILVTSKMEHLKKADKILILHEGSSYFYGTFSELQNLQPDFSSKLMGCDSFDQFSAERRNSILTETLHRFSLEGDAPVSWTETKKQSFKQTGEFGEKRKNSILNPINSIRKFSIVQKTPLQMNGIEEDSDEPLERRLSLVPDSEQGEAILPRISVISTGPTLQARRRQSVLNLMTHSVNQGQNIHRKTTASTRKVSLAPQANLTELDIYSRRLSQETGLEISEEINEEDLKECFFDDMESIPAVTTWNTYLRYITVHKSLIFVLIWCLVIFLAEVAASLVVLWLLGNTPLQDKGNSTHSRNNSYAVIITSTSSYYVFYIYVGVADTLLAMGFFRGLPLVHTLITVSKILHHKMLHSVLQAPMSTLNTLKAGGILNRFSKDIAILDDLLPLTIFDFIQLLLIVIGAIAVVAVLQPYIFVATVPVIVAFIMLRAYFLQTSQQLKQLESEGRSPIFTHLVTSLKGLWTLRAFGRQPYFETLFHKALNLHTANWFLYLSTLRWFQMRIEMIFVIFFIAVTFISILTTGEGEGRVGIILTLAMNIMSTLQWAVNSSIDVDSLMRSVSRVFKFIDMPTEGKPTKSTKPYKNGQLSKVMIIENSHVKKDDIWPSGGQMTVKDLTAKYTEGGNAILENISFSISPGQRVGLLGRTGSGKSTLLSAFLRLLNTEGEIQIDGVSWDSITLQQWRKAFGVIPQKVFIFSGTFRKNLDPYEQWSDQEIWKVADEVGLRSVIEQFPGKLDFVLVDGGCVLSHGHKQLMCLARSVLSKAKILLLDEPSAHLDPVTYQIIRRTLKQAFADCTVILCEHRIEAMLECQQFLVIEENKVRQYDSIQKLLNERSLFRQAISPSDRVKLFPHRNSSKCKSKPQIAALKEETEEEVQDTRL
T1 sequence (P13569 with tags, fused parts or gaps DEL508-508): as above

Take `CCC(c1cn(-c2ccc(F)cc2F)nn1)n1cc(-c2cc(F)cnc2OC)c2c(N)ncnc21` (single isomer, unassigned; enantiomer 2) [Example 164, 7-{1-[1-(2,4-Difluorophenyl)-1H-1,2,3-triazol-4-yl]propyl}-5-(5-fluoro-2-methoxypyridin-3-yl)-7H-pyrrolo[2,3-d]pyrimidin-4-amine, enantiomer 2]: the EC50 – broadly, the midpoint of the concentration-response curve – in assay [1] was 4.58 nM; in assay [2], 8.18 nM.

On to `CCC(c1cn(-c2ccc(F)cc2F)nn1)n1cc(-c2cnc(OC)c(F)c2)c2c(N)ncnc21` (single isomer, unassigned; enantiomer 2) [Example 166, 7-{1-[1-(2,4-Difluorophenyl)-1H-1,2,3-triazol-4-yl]propyl}-5-(5-fluoro-6-methoxypyridin-3-yl)-7H-pyrrolo[2,3-d]pyrimidin-4-amine, enantiomer 2], for which the results for the EC50 in assay [1] and in assay [2] were 9 nM and 24.6 nM, respectively.

Consider `CCC(c1cn(-c2ccc(F)cc2F)nn1)n1cc(-c2cnc(C(F)F)nc2)c2c(N)ncnc21` (single isomer, unassigned; enantiomer 2) [Example 168, 5-[2-(Difluoromethyl)pyrimidin-5-yl]-7-{1-[1-(2,4-difluorophenyl)-1H-1,2,3-triazol-4-yl]propyl}-7H-pyrrolo[2,3-d]pyrimidin-4-amine, enantiomer 2], for which the EC50 in assay [1] was determined as 2330 nM; in assay [2], 2950 nM.

Take `CCC(c1cn(-c2cccc(F)c2F)nn1)n1cc(-c2cc(F)cnc2OC)c2c(N)ncnc21` (single isomer, unassigned; enantiomer 2) [Example 170, 7-{1-[1-(2,3-Difluorophenyl)-1H-1,2,3-triazol-4-yl]propyl}-5-(5-fluoro-2-methoxypyridin-3-yl)-7H-pyrrolo[2,3-d]pyrimidin-4-amine, enantiomer 2]: the EC50 is 48.8 nM in assay [1] and 214 nM in assay [2].

As to `CCC(c1cn(-c2cc(F)ccc2F)nn1)n1cc(-c2cc(F)cnc2OC)c2c(N)ncnc21` (single isomer, unassigned; enantiomer 2) [Example 172, 7-{1-[1-(2,5-Difluorophenyl)-1H-1,2,3-triazol-4-yl]propyl}-5-(5-fluoro-2-methoxypyridin-3-yl)-7H-pyrrolo[2,3-d]pyrimidin-4-amine, enantiomer 2], the EC50 turned out to be 77.6 nM in assay [1] and 203 nM in assay [2].

`CCC(c1cnn(-c2ccccc2F)c1)n1cc(-c2cnc(C(F)(F)F)nc2)c2c(N)ncnc21` (single isomer, unassigned; enantiomer 2) [Example 176, 7-{(1-[1-(2-Fluorophenyl)-1H-pyrazol-4-yl]propyl}-5-[2-(trifluoromethyl)pyrimidin-5-yl]-7H-pyrrolo[2,3-d]pyrimidin-4-amine, enantiomer 2]: the EC50 is 106 nM in assay [1] and 204 nM in assay [2].

With `CC(c1cc(-c2ccccc2F)no1)n1cc(-c2ccc(Cl)cc2)c2c(N)ncnc21` (single isomer, unassigned; enantiomer 2) [Example 182, (−)-5-(4-Chlorophenyl)-7-{1-[3-(2-fluorophenyl)-1,2-oxazol-5-yl]ethyl}-7H-pyrrolo[2,3-d]pyrimidin-4-amine, enantiomer 2], the results for the EC50 in assay [1] and in assay [2] were 446 nM and 468 nM, respectively.

`COc1ncncc1-c1cn(C(c2cn(-c3ccccc3F)nn2)C2CC2)c2ncnc(N)c12` (single isomer, unassigned; enantiomer 2) [Example 300, (−) 7-{Cyclopropyl[1-(2-fluorophenyl)-1H-1,2,3-triazol-4-yl]methyl}-5-(4-methoxypyrimidin-5-yl)-7H-pyrrolo[2,3-d]pyrimidin-4-amine, enantiomer 2]: the EC50 was found to be 453 nM in assay [1] and 154 nM in assay [2].

The values are drawn from US12612409B2, “Pyrrolopyrimidines as CFTR potentiators” (Cystic Fibrosis Foundation, priority 2016, dated 2026).
